# How the values were obtained:
# [1] = molecular target: T1, Prostaglandin G/H synthase 1 (Ovis aries, UniProt P05979); assay: Inhibition of ovine COX1 using arachidonic acid as substrate preincubated for 10 mins followed by substrate addition measured after 5 mins by ELISA
# T1 sequence (P05979 whole entry): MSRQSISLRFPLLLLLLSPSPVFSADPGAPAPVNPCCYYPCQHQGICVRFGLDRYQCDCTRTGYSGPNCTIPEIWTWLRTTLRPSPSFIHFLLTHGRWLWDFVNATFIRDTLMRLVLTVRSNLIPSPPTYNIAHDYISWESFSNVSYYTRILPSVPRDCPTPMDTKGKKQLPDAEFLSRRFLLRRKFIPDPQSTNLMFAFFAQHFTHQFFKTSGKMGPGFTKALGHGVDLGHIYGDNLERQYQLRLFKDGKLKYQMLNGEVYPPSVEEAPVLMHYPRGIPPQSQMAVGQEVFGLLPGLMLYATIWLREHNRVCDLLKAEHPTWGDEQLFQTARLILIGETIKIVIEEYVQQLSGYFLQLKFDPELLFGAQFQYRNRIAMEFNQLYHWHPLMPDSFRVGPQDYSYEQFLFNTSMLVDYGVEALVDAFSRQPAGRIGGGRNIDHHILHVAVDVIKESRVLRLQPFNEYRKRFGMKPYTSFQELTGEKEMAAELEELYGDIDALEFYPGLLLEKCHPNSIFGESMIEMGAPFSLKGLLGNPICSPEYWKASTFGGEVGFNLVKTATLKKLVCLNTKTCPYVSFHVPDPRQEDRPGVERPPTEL
# Ovis aries = species: Ovis aries; assay: Selectivity ratio of compound effect for inhibition of ovine COX2 to compound effect for inhibition of ovine COX1
# Rattus norvegicus = assay: Anti-inflammatory activity in Sprague-Dawley rat assessed as inhibition of carrageenan-induced edema in hind paw administered ip measured after 4 to 6 hrs relative to control; assay type: functional
# [2] = molecular target: T2, Prostaglandin G/H synthase 1 (Ovis aries) (UniProt P05979); assay: Inhibition of ovine COX1 at 5 uM using arachidonic acid as substrate preincubated for 10 mins followed by substrate addition measured after 5 mins by ELISA relative to control
# T2 sequence (whole entry): T1 sequence (P05979 whole entry)
structure (smiles),measurement,setting,value
CC1=NN(c2ccccc2)C(=O)C1C(Nc1c(C)n(C)n(-c2ccccc2)c1=O)c1c(C)n(C)n(-c2ccccc2)c1=O (stereo not given),IC50,[1],> 5000 nM
same,Selectivity ratio,Ovis aries,1.01
same,inhibition (INH),Rattus norvegicus,39.4%
same,inhibition,[2],58.8%
Cc1c(C(CCCC(c2c(C)n(C)n(-c3ccccc3)c2=O)c2c(C)n(C)n(-c3ccccc3)c2=O)c2c(C)n(-c3ccccc3)n(C)c2=O)c(=O)n(-c2ccccc2)n1C (stereo not given),IC50,[1],1460 nM
same,Selectivity ratio,Ovis aries,0.48
same,inhibition (INH),Rattus norvegicus,75%
same,inhibition,[2],81.3%
CC1=NN(c2ccccc2)C(=O)/C1=C\c1ccc2c(c1)OCO2,IC50,[1],22200 nM
same,Selectivity ratio,Ovis aries,0.67
same,inhibition (INH),Rattus norvegicus,20.3%
same,inhibition,[2],25%
CC1=NN(c2ccccc2)C(=O)C1C(c1c(C)n(C)n(-c2ccccc2)c1=O)N1CCCCC1 (stereo not given),IC50,[1],1330 nM
same,Selectivity ratio,Ovis aries,0.95
same,inhibition (INH),Rattus norvegicus,40.5%
same,inhibition,[2],78%
CC1=NN(c2ccccc2)C(=O)C1C(c1c(C)c(=O)n(-c2ccccc2)n1C)N1CCN(C(c2c(C)c(=O)n(-c3ccccc3)n2C)C2C(=O)N(c3ccccc3)N=C2C)CC1 (stereo not given),IC50,[1],1160 nM
same,Selectivity ratio,Ovis aries,0.87
same,inhibition (INH),Rattus norvegicus,49.5%
same,inhibition,[2],87.4%
CC1=NN(c2ccccc2)C(=O)/C1=C\c1c(C)n(C)n(-c2ccccc2)c1=O,IC50,[1],> 5000 nM
same,Selectivity ratio,Ovis aries,0.87
same,inhibition (INH),Rattus norvegicus,49.1%
same,inhibition,[2],87%
Cc1ccc(-c2cc(C(F)(F)F)nn2-c2ccc(S(N)(=O)=O)cc2)cc1 [CELECOXIB],inhibition (INH),Rattus norvegicus,89%
Cc1nn(-c2ccccc2)c(O)c1C(c1c(-c2ccccc2)[nH]c2ccccc12)c1c(C)c(=O)n(-c2ccccc2)n1C (stereo not given),IC50,[1],> 5000 nM
same,Selectivity ratio,Ovis aries,0.79
same,inhibition (INH),Rattus norvegicus,35.9%
same,inhibition,[2],69.1%
Cc1c(CN2CCC(CCCC3CCN(Cc4c(C)n(C)n(-c5ccccc5)c4=O)CC3)CC2)c(=O)n(-c2ccccc2)n1C,IC50,[1],1230 nM
same,Selectivity ratio,Ovis aries,0.78
same,inhibition (INH),Rattus norvegicus,85.4%
same,inhibition,[2],88.5%
CC1=NN(c2ccccc2)C(=O)C1C(c1ccc2c(c1)OCO2)N1CCN(C(c2ccc3c(c2)OCO3)C2C(=O)N(c3ccccc3)N=C2C)CC1 (stereo not given),IC50,[1],> 5000 nM
same,Selectivity ratio,Ovis aries,1.2
same,inhibition (INH),Rattus norvegicus,21.1%
same,inhibition,[2],42.9%
CC1=NN(c2ccccc2)C(=O)C1C(Nc1c(C)n(C)n(-c2ccccc2)c1=O)c1ccc2c(c1)OCO2 (stereo not given),IC50,[1],2520 nM
same,Selectivity ratio,Ovis aries,0.82
same,inhibition (INH),Rattus norvegicus,48.3%
same,inhibition,[2],84.2%
Cc1c(CN2CCN(CCO)CC2)c(=O)n(-c2ccccc2)n1C,IC50,[1],> 5000 nM
same,Selectivity ratio,Ovis aries,1.05
same,inhibition (INH),Rattus norvegicus,48.2%
same,inhibition,[2],73.4%
